In the supplement of paper PMC9663587:

Legend:
Cediranib/AZD2171 = compound: COc1cc2c(Oc3ccc4[nH]c(C)cc4c3F)ncnc2cc1OCCCN1CCCC1 [Cediranib/AZD2171]
[1] = compound: CO[C@@H](C)Cn1c(=O)n(C)c2cnc3ccc(-c4cncc(C(C)(C)O)c4)cc3c21
BVD523 = compound: CC(C)Nc1cc(-c2c[nH]c(C(=O)N[C@H](CO)c3cccc(Cl)c3)c2)c(Cl)cn1 [BVD523]
AZD1775 = compound: C=CCn1c(=O)c2cnc(Nc3ccc(N4CCN(C)CC4)cc3)nc2n1-c1cccc(C(C)(C)O)n1 [AZD1775]
[2] = compound: CC(=O)Nc1cccc(-n2c(=O)n(C3CC3)c(=O)c3c(Nc4ccc(I)cc4F)n(C)c(=O)c(C)c32)c1
THZ1 [3] = compound: T1, CN(C)C/C=C/C(=O)Nc1ccc(C(=O)Nc2cccc(Nc3ncc(Cl)c(-c4c[nH]c5ccccc45)n3)c2)cc1 [THZ1]
THZ531 [4] = compound: T2, CN(C)C/C=C/C(=O)Nc1ccc(C(=O)N2CCC[C@@H](Nc3ncc(Cl)c(-c4c[nH]c5ccccc45)n3)C2)cc1 [THZ531]
Alpelisib/BYL719 = compound: Cc1nc(NC(=O)N2CCC[C@H]2C(N)=O)sc1-c1ccnc(C(C)(C)C(F)(F)F)c1 [Alpelisib/BYL719]
Saracatinib/AZD0530 = compound: CN1CCN(CCOc2cc(OC3CCOCC3)c3c(Nc4c(Cl)ccc5c4OCO5)ncnc3c2)CC1 [Saracatinib/AZD0530]
[5] = compound: COc1ccc2c(c1)[C@]1(C[C@H]1c1ccc3c(/C=C/c4ccc(CN5C[C@@H](C)O[C@@H](C)C5)cc4)n[nH]c3c1)C(=O)N2
YKL-5-124 = compound: C=CC(=O)Nc1ccc(C(=O)Nc2[nH]nc3c2CN(C(=O)N[C@H](CN(C)C)c2ccccc2)C3(C)C)cc1 [YKL-5-124]; assay: increase in dead-cell fraction, 72 h; higher = more death;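 note: breast cancer cell lines in 384-well plates, stained with Hoechst plus LIVE/DEAD far red dye and imaged, cells above an LDR intensity threshold counted dead, Hoechst-negative corpses included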
[6] = compound: CCc1cnn2c(NCc3ccc[n+]([O-])c3)cc(N3CCCC[C@H]3CCO)nc12; assay: as above
Neratinib/HKI272 = compound: CCOc1cc2ncc(C#N)c(Nc3ccc(OCc4ccccn4)c(Cl)c3)c2cc1NC(=O)/C=C/CN(C)C [Neratinib/HKI272]; assay: as above
THZ1 [7] = compound: T1, THZ1; assay: as above
THZ531 [8] = compound: T2, THZ531; assay: as above
[9] = compound: CC(=O)c1c(C)c2cnc(Nc3ccc(N4CCNCC4)cn3)nc2n(C2CCCC2)c1=O; assay: as above
BSJ-03-123 = compound: CC(=O)c1c(C)c2cnc(Nc3ccc(N4CCN(CCOCCOCCOCCNC(=O)COc5cccc6c5C(=O)N(C5CCC(=O)NC5=O)C6=O)CC4)cn3)nc2n(C2CCCC2)c1=O [BSJ-03-123]; assay: as above
LEE011/Ribociclib = compound: CN(C)C(=O)c1cc2cnc(Nc3ccc(N4CCNCC4)cn3)nc2n1C1CCCC1 [LEE011/Ribociclib]; assay: as above
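Throughout, for GR50, 72 h: breast cancer and non-malignant breast epithelial cell lines, Deep Dye Drop or Dye Drop imaging, nine half-log doses, GR normalized to time-zero plates and DMSO-only controls.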

MDAMB361
GR50, 72 h (Cediranib/AZD2171): 2.22 µM | GR50, 72 h [1]: < 0.001 µM | GR50, 72 h (BVD523): 0.476 µM | GR50, 72 h (AZD1775): 0.00493 µM | GR50, 72 h [2]: > 1 µM | GR50, 72 h (THZ1 [3]): 0.00852 µM | GR50, 72 h (THZ531 [4]): 0.0273 µM | GR50, 72 h (Alpelisib/BYL719): 0.223 µM | GR50, 72 h (Saracatinib/AZD0530): 0.426 µM | GR50, 72 h [5]: 0.00573 µM | increase in dead-cell fraction (YKL-5-124; 0.001 µM): 0.0281 | increase in dead-cell fraction (YKL-5-124; 0.003162 µM): 0.0171 | increase in dead-cell fraction (YKL-5-124; 0.01 µM): 0.0264 | increase in dead-cell fraction (YKL-5-124; 0.03162 µM): 0.0267 | increase in dead-cell fraction (YKL-5-124; 0.1 µM): 0.0421 | increase in dead-cell fraction (YKL-5-124; 0.3162 µM): 0.0191 | increase in dead-cell fraction (YKL-5-124; 1 µM): 0.0241 | increase in dead-cell fraction (YKL-5-124; 3.162 µM): 0.0411 | increase in dead-cell fraction (YKL-5-124; 10 µM): 0.371 | increase in dead-cell fraction ([6]; 0.0001 µM): 0.0019 | increase in dead-cell fraction ([6]; 0.0003162 µM): -0.0027 | increase in dead-cell fraction ([6]; 0.001 µM): -0.0041 | increase in dead-cell fraction ([6]; 0.003162 µM): 0.0003 | increase in dead-cell fraction ([6]; 0.01 µM): 0.0259 | increase in dead-cell fraction ([6]; 0.03162 µM): 0.303 | increase in dead-cell fraction ([6]; 0.1 µM): 0.148 | increase in dead-cell fraction ([6]; 0.3162 µM): 0.14 | increase in dead-cell fraction ([6]; 1 µM): 0.153 | increase in dead-cell fraction (Neratinib/HKI272; 0.0003162 µM): 0.0068 | increase in dead-cell fraction (Neratinib/HKI272; 0.001 µM): 0.0063 | increase in dead-cell fraction (Neratinib/HKI272; 0.003162 µM): 0.028 | increase in dead-cell fraction (Neratinib/HKI272; 0.01 µM): 0.0198 | increase in dead-cell fraction (Neratinib/HKI272; 0.03162 µM): 0.0227 | increase in dead-cell fraction (Neratinib/HKI272; 0.1 µM): 0.0339 | increase in dead-cell fraction (Neratinib/HKI272; 0.3162 µM): 0.0406 | increase in dead-cell fraction (Neratinib/HKI272; 1 µM): 0.105 | increase in dead-cell fraction (Neratinib/HKI272; 3.162 µM): 0.435 | increase in dead-cell fraction (THZ1 [7]; 0.0001 µM): -0.0046 | increase in dead-cell fraction (THZ1 [7]; 0.0003162 µM): -0.0085 | increase in dead-cell fraction (THZ1 [7]; 0.001 µM): -0.0074 | increase in dead-cell fraction (THZ1 [7]; 0.003162 µM): 0.0099 | increase in dead-cell fraction (THZ1 [7]; 0.01 µM): 0.016 | increase in dead-cell fraction (THZ1 [7]; 0.03162 µM): 0.0299 | increase in dead-cell fraction (THZ1 [7]; 0.1 µM): 0.166 | increase in dead-cell fraction (THZ1 [7]; 0.3162 µM): 0.246 | increase in dead-cell fraction (THZ1 [7]; 1 µM): 0.186 | increase in dead-cell fraction (THZ531 [8]; 0.0001 µM): -0.004 | increase in dead-cell fraction (THZ531 [8]; 0.0003162 µM): -0.0021 | increase in dead-cell fraction (THZ531 [8]; 0.001 µM): 0.0045 | increase in dead-cell fraction (THZ531 [8]; 0.003162 µM): -0.0062 | increase in dead-cell fraction (THZ531 [8]; 0.01 µM): -0.0039 | increase in dead-cell fraction (THZ531 [8]; 0.03162 µM): 0.0484 | increase in dead-cell fraction (THZ531 [8]; 0.1 µM): 0.454 | increase in dead-cell fraction (THZ531 [8]; 0.3162 µM): 0.219 | increase in dead-cell fraction (THZ531 [8]; 1 µM): 0.106 | increase in dead-cell fraction ([9]; 0.0003162 µM): 0.0032 | increase in dead-cell fraction ([9]; 0.001 µM): -0.0062 | increase in dead-cell fraction ([9]; 0.003162 µM): -0.002 | increase in dead-cell fraction ([9]; 0.01 µM): 0.0022 | increase in dead-cell fraction ([9]; 0.03162 µM): 0.0148 | increase in dead-cell fraction ([9]; 0.1 µM): 0.0157 | increase in dead-cell fraction ([9]; 0.3162 µM): 0.0051 | increase in dead-cell fraction ([9]; 1 µM): 0.0076 | increase in dead-cell fraction ([9]; 3.162 µM): 0.0191 | increase in dead-cell fraction (BSJ-03-123; 0.001 µM): 0.0068 | increase in dead-cell fraction (BSJ-03-123; 0.003162 µM): 0.0047 | increase in dead-cell fraction (BSJ-03-123; 0.01 µM): 0.0008 | increase in dead-cell fraction (BSJ-03-123; 0.03162 µM): 0.006 | increase in dead-cell fraction (BSJ-03-123; 0.1 µM): 0.0093 | increase in dead-cell fraction (BSJ-03-123; 0.3162 µM): 0.0131 | increase in dead-cell fraction (BSJ-03-123; 1 µM): 0.0189 | increase in dead-cell fraction (BSJ-03-123; 3.162 µM): 0.0054 | increase in dead-cell fraction (BSJ-03-123; 10 µM): 0.0713 | increase in dead-cell fraction (LEE011/Ribociclib; 0.001 µM): 0.0114 | increase in dead-cell fraction (LEE011/Ribociclib; 0.003162 µM): 0.0106 | increase in dead-cell fraction (LEE011/Ribociclib; 0.01 µM): 0.009 | increase in dead-cell fraction (LEE011/Ribociclib; 0.03162 µM): 0.0147 | increase in dead-cell fraction (LEE011/Ribociclib; 0.1 µM): 0.0129 | increase in dead-cell fraction (LEE011/Ribociclib; 0.3162 µM): 0.0218 | increase in dead-cell fraction (LEE011/Ribociclib; 1 µM): 0.0159 | increase in dead-cell fraction (LEE011/Ribociclib; 3.162 µM): 0.0012 | increase in dead-cell fraction (LEE011/Ribociclib; 10 µM): 0.0018
